In data set [1] the target is T1, Group 10 secretory phospholipase A2 (Homo sapiens, UniProt O15496).
T1 sequence (O15496 whole entry): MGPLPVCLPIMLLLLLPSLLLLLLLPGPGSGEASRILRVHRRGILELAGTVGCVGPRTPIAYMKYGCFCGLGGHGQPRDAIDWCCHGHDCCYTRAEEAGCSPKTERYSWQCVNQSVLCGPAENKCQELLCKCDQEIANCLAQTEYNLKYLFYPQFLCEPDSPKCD
Put plainly: Inhibition of recombinant human sPLA2-10 using human HDL as substrate pretreated for 20 mins followed by substrate addition and measured after 60 mins by NEFA based assay.

In another data set the test system is Mus musculus. Put plainly: Unbound clearance in C57Bl/6J mouse administered iv or po. Type of data set: ADME, organism-based. Particulars: in vivo.
Data set [2] in a line: Intrinsic clearance in human hepatocytes assessed per million cells. Particulars: read-out: CLH. In kind it is ADME, cell-based, Hepatocyte.
Data set [3] addresses T2, Phospholipase A2, membrane associated (Homo sapiens, UniProt P14555).
T2 sequence (P14555 whole entry): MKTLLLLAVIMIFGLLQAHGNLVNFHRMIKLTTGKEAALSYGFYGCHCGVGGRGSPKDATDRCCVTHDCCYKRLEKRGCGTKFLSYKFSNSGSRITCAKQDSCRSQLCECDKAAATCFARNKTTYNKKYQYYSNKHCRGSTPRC
Description: Inhibition of sPLA2-2A (unknown origin) using 1-palmitoyl-2-oleoyl-sn-glycero-3-phosphocholine as substrate pretreated for 20 mins followed by substrate addition and measured after 60 mins by NEFA based assay.

The target in data set [4] is T1, Group 10 secretory phospholipase A2. Description: Inhibition of sPLA2-10 (unknown origin) using 1-palmitoyl-2-oleoyl-sn-glycero-3-phosphocholine as substrate pretreated for 20 mins followed by substrate addition and measured after 60 mins by NEFA based assay.
Another data set deals with T3, Phospholipase A2 group V (Homo sapiens, UniProt P39877).
T3 sequence (P39877 whole entry): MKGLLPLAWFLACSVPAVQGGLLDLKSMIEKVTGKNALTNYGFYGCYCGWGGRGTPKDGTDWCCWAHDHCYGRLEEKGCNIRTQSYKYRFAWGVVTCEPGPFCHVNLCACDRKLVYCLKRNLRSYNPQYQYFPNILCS
Put plainly: Inhibition of sPLA2-5 (unknown origin) using 1-palmitoyl-2-oleoyl-sn-glycero-3-phosphocholine as substrate pretreated for 20 mins followed by substrate addition and measured after 60 mins by NEFA based assay.

The species entered for data set [5] is Homo sapiens. Put plainly: Selectivity ratio of IC50 for sPLA2-2A (unknown origin) to IC50 for sPLA2-10 (unknown origin).
Data set [6] can be described thus: Lipophilicity, log D of compound at pH 7.4. Particulars: buffer.
For data set [7], the species on record is Homo sapiens. Put plainly: Selectivity ratio of IC50 for sPLA2-5 (unknown origin) to IC50 for sPLA2-10 (unknown origin).
Data set [8] has as its target T4, Phospholipase A2 group V (Homo sapiens) (UniProt P39877).
T4 sequence (whole entry): T3 sequence (P39877 whole entry)
Put plainly: Inhibition of sPLA2-5 (unknown origin) at 10 uM using 1-palmitoyl-2-oleoyl-sn-glycero-3-phosphocholine as substrate pretreated for 20 mins followed by substrate addition and measured after 60 mins by NEFA based assay.

Active and inactive are the calls of the source. No cut-off for these calls is given here.

A word on the IC50: it is the midpoint of a concentration-inhibition curve. `NC(=O)c1cc2ccc(OC(F)(F)F)cc2n1-c1cccc(CCC(=O)O)c1`: in [1], the IC50 is 310 nM. Besides, in the data set with Mus musculus, the CL free worked out at 1446 mL/min/kg. Moreover, the hepatocyte CLint in [2] amounted to 9.33 µL/min/1e6 cells.

For the compound `CC(C)(Cc1cccc(-n2c(C(N)=O)cc3ccc(OC(F)(F)F)cc32)n1)C(=O)O`, the IC50 in data set [3] is 3100 nM; in [4], 320 nM; at Phospholipase A2 group V, greater than 10000 nM.

On to `NC(=O)c1cc2ccc(OC(F)(F)F)cc2n1-c1cnn(CCC(=O)O)c1`, for which the IC50 in data set [3] is 4500 nM; in [4], greater than 10000 nM; at Phospholipase A2 group V, 2700 nM.

Turning to `NC(=O)c1cc2ccc(OC(F)(F)F)cc2n1-c1ccnc(CCC(=O)O)c1`, the IC50 in [1] is 1600 nM; in [3], 1200 nM; in data set [4], 240 nM; at Phospholipase A2 group V, 2100 nM. The hepatocyte CLint in data set [2] was less than 5 µL/min/1e6 cells.

`NC(=O)c1cc2ccc(OC(F)(F)F)cc2n1-c1ccc(CCC(=O)O)o1`: the IC50 was 1900 nM in [3], 430 nM in data set [4] and 5900 nM on Phospholipase A2 group V.

For the compound `C[C@H](CC(=O)O)c1cccc(-n2c(C(N)=O)cc3ccc(OC(F)(F)F)cc32)c1`, the IC50 in data set [3] worked out at 3900 nM; in data set [4] it was 200 nM; on Phospholipase A2 group V, 8600 nM.

A word on the logD: it is the decadic logarithm of the distribution of all forms, ionised or not, between an organic phase and buffer at a given pH. The low end stands for lower lipophilicity, the high end for higher lipophilicity. Take `C[C@@H](CC(=O)O)c1cccc(-n2c(C(N)=O)cc3ccc(OC(F)(F)F)cc32)c1`: the half-maximal inhibitory concentration (IC50) worked out at 110 nM in [1], 820 nM in data set [3], 15 nM in data set [4] and 5100 nM at Phospholipase A2 group V. In the data set on Mus musculus, this compound displayed a CL free of 1025 mL/min/kg. Also, the Ratio IC50 came out at 60 in the data set filed under Homo sapiens [5] and 360 in the data set listed under Homo sapiens [7]. This compound came in with a logD in data set [6] of 1.3.

Turning to `NC(=O)c1cc2ccc(OC(F)(F)F)cc2n1-c1cc(CCC(=O)O)ccn1`, the IC50 worked out at 640 nM in data set [1], 290 nM in [3], 110 nM in [4] and 720 nM on Phospholipase A2 group V. The hepatocyte CLint in data set [2] was less than 5 µL/min/1e6 cells.

For the compound `NC(=O)c1cc2ccc(OC(F)(F)F)cc2n1-c1ccn(CCC(=O)O)n1`, the results for the IC50 in [3] and in data set [4] were 4000 nM and 4800 nM, respectively. For the same compound, the inhibition result in data set [8] was “inactive”.

Regarding `NC(=O)c1cc2ccc(OC(F)(F)F)cc2n1-c1cccc(CCC(=O)O)n1`, the IC50 stood at 250 nM in [1], 470 nM in data set [3], 29 nM in data set [4] and 2300 nM at Phospholipase A2 group V. Moreover, the hepatocyte CLint in [2] was less than 5 µL/min/1e6 cells.

`CC(CC(=O)O)c1cccc(-n2c(C(N)=O)cc3ccc(OC(F)(F)F)cc32)n1` (single isomer, unassigned; (+)) [listing 1 of 2 here]: the IC50 in data set [3] was 3800 nM; in [4], 500 nM.

With `CC(CC(=O)O)c1cccc(-n2c(C(N)=O)cc3ccc(OC(F)(F)F)cc32)n1` (single isomer, unassigned; (+)) [listing 2 of 2 here], the inhibition result in data set [8] was “inactive”.

Turning to `CCC(Cc1cccc(-n2c(C(N)=O)cc3ccc(OC(F)(F)F)cc32)n1)C(=O)O` (stereo in doubt), the IC50 in data set [3] was 840 nM; in [4] it was 940 nM; on Phospholipase A2 group V it was greater than 10000 nM.

With `COC(Cc1cccc(-n2c(C(N)=O)cc3ccc(OC(F)(F)F)cc32)c1)C(=O)O` (stereo in doubt) [listing 1 of 2 here], the IC50 is 2700 nM in data set [3] and 170 nM in data set [4].

For `CC(Cc1ccnc(-n2c(C(N)=O)cc3ccc(OC(F)(F)F)cc32)c1)C(=O)O` (stereo in doubt), the IC50 in data set [1] was 3400 nM; in [3] it was 340 nM; in data set [4] it was 360 nM; on Phospholipase A2 group V, 1600 nM.

For the compound `CC(Cc1cccc(-n2c(C(N)=O)cc3ccc(OC(F)(F)F)cc32)n1)C(=O)O` (stereo in doubt), the IC50 in data set [3] was 1700 nM; in data set [4], 570 nM; on Phospholipase A2 group V, greater than 10000 nM.

For the compound `CC(Cc1cccc(-n2c(C(N)=O)cc3ccc(OC(F)(F)F)cc32)c1)C(=O)O` (stereo in doubt), the IC50 in data set [1] is 2800 nM; in data set [3], 810 nM; in data set [4], 100 nM; at Phospholipase A2 group V, greater than 10000 nM.

For `COC(Cc1cccc(-n2c(C(N)=O)cc3ccc(OC(F)(F)F)cc32)c1)C(=O)O` (stereo in doubt) [listing 2 of 2 here], the inhibition entry in [8] is “inactive”.

Turning to `CC(Cc1cccc(-n2c(C(N)=O)cc3ccc(OC(F)(F)F)cc32)c1)C(=O)O` (stereo in doubt; 10), the IC50 in data set [1] turned out to be 350 nM; in data set [3], 57 nM; in data set [4] it was 32 nM; on Phospholipase A2 group V it was 510 nM.

For the compound `COC(Cc1cccc(-n2c(C(N)=O)cc3ccc(OC(F)(F)F)cc32)c1)C(=O)O` (stereo in doubt; 11), the IC50 was 140 nM in data set [1], 140 nM in [3], 39 nM in data set [4] and 2100 nM at Phospholipase A2 group V.

Consider `CC(Cc1ccnc(-n2c(C(N)=O)cc3ccc(OC(F)(F)F)cc32)c1)C(=O)O` (stereo in doubt; 13), for which the IC50 in [1] stood at 830 nM; in data set [3] it was 44 nM; in data set [4], 140 nM; at Phospholipase A2 group V it was 180 nM.

In the case of `CC(Cc1cccc(-n2c(C(N)=O)cc3ccc(OC(F)(F)F)cc32)n1)C(=O)O` (stereo in doubt; 14), the IC50 is 250 nM in [1], 92 nM in data set [3], 65 nM in data set [4] and 510 nM at Phospholipase A2 group V.

In the case of `CCC(Cc1cccc(-n2c(C(N)=O)cc3ccc(OC(F)(F)F)cc32)n1)C(=O)O` (stereo in doubt; 15), the IC50 in [1] was 330 nM; in data set [3] it was 170 nM; in data set [4], 170 nM; on Phospholipase A2 group V, 1900 nM.
